As usually defined, the IC50 is the concentration at which inhibition is half-maximal.

The record followed here is patent US9440969B2, “Compounds and methods for kinase modulation, and indications therefor” (PLEXXIKON INC., priority 2009, dated 2016).

One assay concerns the target B-Raf (Homo sapiens, UniProt P15056). The assay is described as follows: B-Raf kinase activity assay (AlphaScreen, biotin-MEK1 substrate). The note with it: 100 μM ATP, 100 nM biotin-MEK1, 45 minutes at room temperature; read-out: Biochemical activity (IC50 μM) B-Raf. The method, then: (§1) Assays for biochemical and cell based activity are known in the art, for example, as described in PCT publication WO 2007/002433, the disclosure of which is hereby incorporated by reference as it relates to such assays. For example, the biochemical activity IC50 values are determined with respect to inhibition of B-Raf kinase activity, c-Raf-1 kinase activity, or B-Raf V600E kinase activity, where inhibition of phosphorylation of a peptide substrate is measured as a function of compound concentration. Compounds to be tested are diluted in dimethyl sulfoxide to a concentration of 0.1 mM. These are serially diluted 15 μL into 30 μL of dimethyl sulfoxide seven times in 96 well plates for a total of 8 dilution points, and for each dilution point 1 μL is added to a well of an assay plate. Plates are prepared such that each well in a 384 well plate contains 1 μL of compound in 10 μL, volume with 0.1 ng Raf enzyme (i.e. any of B-Raf, c-Raf-1 or B-Raf V600E, Upstate Biotechnology or prepared by methods known to one of skill in the art), 50 mM HEPES, pH 7.0, 50 mM NaCl, 2 mM MgCl2, 1 mM MnCl2, 0.01% Tween-20, 1 mM DTT, and 100 nM biotin-MEK1 as substrate. The reaction is started with addition of 10 μL of 200 μM ATP (i.e. final 100 μM ATP). After incubation of the kinase reaction for 45 minutes at room temperature, 5 μL/well of Stop Solution is added (25 mM Hepes pH 7.5, 100 mM EDTA, 0.01% BSA with donor beads (Streptavidin coated beads, Perkin Elmer), acceptor beads (Protein A coated, Perkin Elmer), and anti phosphor MEK1/2 antibody (CellSignal), each at final concentration 10 μg/mL). The plates are incubated for 3 hours at room temperature and read on Envision reader (Perkin Elmer). Phosphorylation of Mek1 results in binding of the anti-phosphor-MEK1/2 antibody and association of the donor and acceptor beads such that signal correlates with kinase activity. The signal vs. compound concentration is used to determine the IC50.

Another assay addresses c-Raf-1 (Homo sapiens, UniProt P04049). Briefly: c-Raf-1 kinase activity assay (AlphaScreen, biotin-MEK1 substrate). The note with it: 100 μM ATP, 100 nM biotin-MEK1, 45 minutes at room temperature; read-out: Biochemical activity (IC50 μM) c-Raf-1. The method, then: as §1
A general note: Alpha assays give light when donor and acceptor beads are brought close together.

Another assay addresses B-Raf V600E (Homo sapiens, UniProt P15056, V600E). The assay is described as follows: B-Raf V600E kinase activity assay (AlphaScreen, biotin-MEK1 substrate). The note with it: 100 μM ATP, 100 nM biotin-MEK1, 45 minutes at room temperature, read-out: Biochemical activity (IC50 μM) V600E. The method, then:
as §1

Molecules are shown by their SMILES. Some results are limits rather than exact numbers.

Sequence of c-Raf-1 (P04049 whole entry Y340D/Y341D, form open): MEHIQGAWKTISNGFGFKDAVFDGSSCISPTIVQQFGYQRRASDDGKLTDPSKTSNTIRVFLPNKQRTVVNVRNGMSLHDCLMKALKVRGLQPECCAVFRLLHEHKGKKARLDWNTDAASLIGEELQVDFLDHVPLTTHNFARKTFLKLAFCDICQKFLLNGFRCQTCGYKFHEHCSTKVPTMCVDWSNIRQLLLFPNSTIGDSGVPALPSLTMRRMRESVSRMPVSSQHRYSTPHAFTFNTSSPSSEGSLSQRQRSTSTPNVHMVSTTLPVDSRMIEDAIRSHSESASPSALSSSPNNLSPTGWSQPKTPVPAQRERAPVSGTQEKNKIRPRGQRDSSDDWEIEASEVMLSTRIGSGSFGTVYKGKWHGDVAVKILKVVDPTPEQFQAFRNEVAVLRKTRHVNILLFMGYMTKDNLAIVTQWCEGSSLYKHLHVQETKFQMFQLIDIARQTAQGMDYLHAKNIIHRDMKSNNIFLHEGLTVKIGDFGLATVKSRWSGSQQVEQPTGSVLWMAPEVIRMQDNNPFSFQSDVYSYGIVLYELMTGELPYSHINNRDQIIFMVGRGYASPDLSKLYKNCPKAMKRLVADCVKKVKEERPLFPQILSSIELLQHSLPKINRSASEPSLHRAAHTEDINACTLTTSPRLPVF
Sequence of B-Raf (P15056 whole entry): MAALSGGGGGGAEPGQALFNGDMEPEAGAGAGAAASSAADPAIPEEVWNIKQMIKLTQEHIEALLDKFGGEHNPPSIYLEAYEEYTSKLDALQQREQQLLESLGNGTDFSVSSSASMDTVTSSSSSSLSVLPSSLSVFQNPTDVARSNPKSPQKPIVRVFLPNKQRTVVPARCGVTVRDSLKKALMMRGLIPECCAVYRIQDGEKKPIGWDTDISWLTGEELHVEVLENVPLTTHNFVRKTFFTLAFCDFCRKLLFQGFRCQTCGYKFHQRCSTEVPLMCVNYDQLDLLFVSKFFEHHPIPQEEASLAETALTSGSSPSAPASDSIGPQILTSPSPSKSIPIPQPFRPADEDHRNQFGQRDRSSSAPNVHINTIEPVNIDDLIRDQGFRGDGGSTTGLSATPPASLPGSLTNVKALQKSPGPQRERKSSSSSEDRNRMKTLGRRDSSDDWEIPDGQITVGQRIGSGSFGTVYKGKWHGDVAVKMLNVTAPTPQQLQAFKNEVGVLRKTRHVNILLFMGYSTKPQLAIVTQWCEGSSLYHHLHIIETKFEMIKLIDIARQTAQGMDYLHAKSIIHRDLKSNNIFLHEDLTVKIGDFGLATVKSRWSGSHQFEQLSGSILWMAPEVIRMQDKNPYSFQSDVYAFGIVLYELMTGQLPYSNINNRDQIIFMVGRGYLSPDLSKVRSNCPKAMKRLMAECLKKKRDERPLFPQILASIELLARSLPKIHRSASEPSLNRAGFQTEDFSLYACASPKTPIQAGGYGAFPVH
Sequence of B-Raf V600E (P15056 whole entry V600E): as the sequence (P15056 whole entry) above, with V600E counted along it

`CCCS(=O)(=O)Nc1ccc(F)c(C(=O)c2c[nH]c3ncc(-c4cccc5nccn45)cc23)c1F` [P-0018, Propane-1-sulfonic acid [2,4-difluoro-3-(5-imidazo[1,2-a]pyridin-5-yl-1H-pyrrolo[2,3-b]pyridine-3-carbonyl)-phenyl]-amide]: the half-inhibitory concentration (IC50) at B-Raf, at c-Raf-1 and at B-Raf V600E was less than 0.1 µM in each case.

As to `CCCS(=O)(=O)Nc1ccc(F)c(C(=O)c2c[nH]c3ncc(-c4ccc5ncncc5c4)cc23)c1F` [P-0026, Propane-1-sulfonic acid [2,4-difluoro-3-(5-quinazolin-6-yl-1H-pyrrolo[2,3-b]pyridine-3-carbonyl)-phenyl]-amide], the IC50 at B-Raf, at c-Raf-1 and on B-Raf V600E was less than 0.1 µM each time.

Turning to `CCCS(=O)(=O)Nc1ccc(F)c(C(=O)c2c[nH]c3ncc(-c4c(C)nn(-c5nnn[nH]5)c4C)cc23)c1F` [P-1006, Propane-1-sulfonic acid (3-{5-[3,5-dimethyl-1-(1H-tetrazol-5-yl)-1H-pyrazol-4-yl]-1H-pyrrolo[2,3-b]pyridine-3-carbonyl}-2,4-difluoro-phenyl)-amide], the IC50 at B-Raf, on c-Raf-1 and at B-Raf V600E was less than 0.1 µM throughout.

For `CCCS(=O)(=O)Nc1ccc(F)c(C(=O)c2c[nH]c3ncc(-c4c(C)nn(S(=O)(=O)c5cn(C)nc5C)c4C)cc23)c1F` [P-1007, Propane-1-sulfonic acid (3-{5-[1-(1,3-dimethyl-1H-pyrazole-4-sulfonyl)-3,5-dimethyl-1H-pyrazol-4-yl]-1H-pyrrolo[2,3-b]pyridine-3-carbonyl}-2,4-difluoro-phenyl)-amide], the IC50 on B-Raf, at c-Raf-1 and at B-Raf V600E was less than 0.1 µM each time.

`Cn1cc(-c2cnc3[nH]cc(C(=O)c4c(F)ccc(NS(=O)(=O)c5cc(F)ccc5F)c4F)c3c2)cn1` [P-1009, N-{2,4-Difluoro-3-[5-(1-methyl-1H-pyrazol-4-yl)-1H-pyrrolo[2,3-b]pyridine-3-carbonyl]-phenyl}-2,5-difluoro-benzenesulfonamide]: the IC50 at B-Raf, at c-Raf-1 and on B-Raf V600E was less than 0.1 µM each time.

For `CCCS(=O)(=O)Nc1ccc(F)c(C(=O)c2c[nH]c3ncc(-c4cnc(-n5cccn5)s4)cc23)c1F` [P-1109, Propane-1-sulfonic acid {2,4-difluoro-3-[5-(2-pyrazol-1-yl-thiazol-5-yl)-1H-pyrrolo[2,3-b]pyridine-3-carbonyl]-phenyl}-amide], the IC50 on B-Raf, on c-Raf-1 and on B-Raf V600E was less than 0.1 µM throughout.

Consider `O=C(c1c(F)ccc(NS(=O)(=O)c2cc(F)ccc2F)c1F)c1c[nH]c2ncc(-c3cnco3)cc12` [P-1300, N-[2,4-Difluoro-3-(5-oxazol-5-yl-1H-pyrrolo[2,3-b]pyridine-3-carbonyl)-phenyl]-2,5-difluoro-benzenesulfonamide], for which the IC50 at B-Raf, on c-Raf-1 and on B-Raf V600E was less than 0.1 µM in each case.

Turning to `O=C(c1c(F)ccc(NS(=O)(=O)c2cc(F)ccc2F)c1F)c1c[nH]c2ncc(-c3cccnc3)cc12` [P-1402, N-[2,4-Difluoro-3-(5-pyridin-3-yl-1H-pyrrolo[2,3-b]pyridine-3-carbonyl)-phenyl]-2,5-difluoro-benzenesulfonamide], the IC50 on B-Raf, on c-Raf-1 and at B-Raf V600E was less than 0.1 µM in each case.

Take `O=C(c1c(F)ccc(NS(=O)(=O)c2cc(F)ccc2F)c1F)c1c[nH]c2ncc(-c3ccncc3)cc12` [P-1403, N-[2,4-Difluoro-3-(5-pyridin-4-yl-1H-pyrrolo[2,3-b]pyridine-3-carbonyl)-phenyl]-2,5-difluoro-benzenesulfonamide]: the concentration for half-maximal inhibition (IC50) at B-Raf, at c-Raf-1 and at B-Raf V600E was less than 0.1 µM each time.

On to `O=C(c1c(F)ccc(NS(=O)(=O)c2cc(F)ccc2F)c1F)c1c[nH]c2ncc(-c3ccncc3F)cc12` [P-1405, N-{2,4-Difluoro-3-[5-(3-fluoro-pyridin-4-yl)-1H-pyrrolo[2,3-b]pyridine-3-carbonyl]-phenyl}-2,5-difluoro-benzenesulfonamide], for which the IC50 at B-Raf, on c-Raf-1 and on B-Raf V600E was less than 0.1 µM in each case.

Take `CS(=O)(=O)c1cncc(-c2cnc3[nH]cc(C(=O)c4c(F)ccc(NS(=O)(=O)c5cc(F)ccc5F)c4F)c3c2)c1` [P-1407, N-{2,4-Difluoro-3-[5-(5-methanesulfonyl-pyridin-3-yl)-1H-pyrrolo[2,3-b]pyridine-3-carbonyl]-phenyl}-2,5-difluoro-benzenesulfonamide]: the IC50 on B-Raf, on c-Raf-1 and on B-Raf V600E was less than 0.1 µM throughout.

Regarding `O=C(c1c(F)ccc(NS(=O)(=O)c2cc(F)ccc2F)c1F)c1c[nH]c2ncc(-c3cncnc3)cc12` [P-1500, N-[2,4-Difluoro-3-(5-pyrimidin-5-yl-1H-pyrrolo[2,3-b]pyridine-3-carbonyl)-phenyl]-2,5-difluoro-benzenesulfonamide], the IC50 at B-Raf, on c-Raf-1 and at B-Raf V600E was less than 0.1 µM in each case.

Regarding `CNS(=O)(=O)c1ccc(-c2cnc3[nH]cc(C(=O)c4c(F)ccc(NS(=O)(=O)c5cc(F)ccc5F)c4F)c3c2)cc1` [P-1706, N-{2,4-Difluoro-3-[5-(4-methylsulfamoyl-phenyl)-1H-pyrrolo[2,3-b]pyridine-3-carbonyl]-phenyl}-2,5-difluoro-benzenesulfonamide], the IC50 on B-Raf, at c-Raf-1 and at B-Raf V600E was less than 0.1 µM each time.

In the case of `NS(=O)(=O)c1ccc(-c2cnc3[nH]cc(C(=O)c4c(F)ccc(NS(=O)(=O)c5cc(F)ccc5F)c4F)c3c2)cc1` [P-1707, N-{2,4-Difluoro-3-[5-(4-sulfamoyl-phenyl)-1H-pyrrolo[2,3-b]pyridine-3-carbonyl]-phenyl}-2,5-difluoro-benzenesulfonamide], the half-inhibitory concentration (IC50) at B-Raf, at c-Raf-1 and on B-Raf V600E was less than 0.1 µM in each case.

Turning to `CCCS(=O)(=O)Nc1ccc(F)c(C(=O)c2c[nH]c3ncc(NC(=O)c4cccnc4)cc23)c1F` [P-1800, N-{3-[2,6-Difluoro-3-(propane-1-sulfonylamino)-benzoyl]-1H-pyrrolo[2,3-b]pyridin-5-yl}-nicotinamide], the values for the concentration for half-maximal inhibition (IC50) at B-Raf, at c-Raf-1 and on B-Raf V600E were less than 1 µM, less than 0.1 µM and less than 0.1 µM, respectively.

Consider `CCCS(=O)(=O)Nc1ccc(F)c(C(=O)c2c[nH]c3ncc(NC(=O)C4C=C(C)ON4)cc23)c1F` (stereo not drawn) [P-1802, 5-Methyl-2,3-dihydro-isoxazole-3-carboxylic acid {3-[2,6-difluoro-3-(propane-1-sulfonylamino)-benzoyl]-1H-pyrrolo[2,3-b]pyridin-5-yl}-amide], for which the IC50 on B-Raf was less than 1 µM; at c-Raf-1 it was roughly 0.1 µM; on B-Raf V600E, less than 0.1 µM.
